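Step 1: Grow cells in 96-well plates. Step 2: Expose to compound for 48 hours at 5 concentrations. Step 3: Interpolate endpoints linearly; if unreached, use highest concentration. GI50: concentration for 50% inhibition of growth. At the TGI there is no net growth.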
Columns and labels:
Assay in all cases: NCI tumour cell line growth inhibition, 48 h
[1] = tested on: 786-0 renal
[2] = tested on: A498 renal
[3] = tested on: A549 NSCLC
[4] = tested on: ACHN renal
[5] = tested on: BT-549 breast
[6] = tested on: CAKI-1 renal
[7] = tested on: CCRF-CEM leukemia
[8] = tested on: COLO 205 colon
[9] = tested on: DU-145 prostate
[10] = tested on: EKVX NSCLC
[11] = tested on: HCC-2998 colon
[12] = tested on: HCT-116 colon
[13] = tested on: HCT-15 colon
[14] = tested on: HL-60(TB) leukemia
[15] = tested on: HOP-62 NSCLC
[16] = tested on: HOP-92 NSCLC
[17] = tested on: HS 578T breast
[18] = tested on: HT29 colon
[19] = tested on: IGROV1 ovarian
[20] = tested on: K-562 leukemia
[21] = tested on: KM12 colon
[22] = tested on: LOX IMVI melanoma
[23] = tested on: M14 melanoma
[24] = tested on: MALME-3M melanoma
[25] = tested on: MCF7 breast
[26] = tested on: MDA-MB-231 breast
[27] = tested on: MDA-MB-435
[28] = tested on: MOLT-4 leukemia
[29] = tested on: NCI-H226 lung
[30] = tested on: NCI-H23 lung
[31] = tested on: NCI-H522 lung
[32] = tested on: NCI/ADR-RES ovarian
[33] = tested on: OVCAR-3 ovarian
[34] = tested on: OVCAR-4 ovarian
[35] = tested on: OVCAR-5 ovarian
[36] = tested on: OVCAR-8 ovarian
[37] = tested on: PC-3 prostate
[38] = tested on: RPMI-8226 leukemia
[39] = tested on: RXF 393 renal
[40] = tested on: SF-268 CNS
[41] = tested on: SF-295 CNS
[42] = tested on: SF-539 CNS
[43] = tested on: SK-MEL-2 melanoma
[44] = tested on: SK-MEL-28 melanoma
[45] = tested on: SK-MEL-5 melanoma
[46] = tested on: SK-OV-3 ovarian
[47] = tested on: SN12C renal
[48] = tested on: SNB-19 CNS
[49] = tested on: SNB-75 CNS
[50] = tested on: SR leukemia
[51] = tested on: SW-620 colon
[52] = tested on: T-47D breast
[53] = tested on: TK-10 renal
[54] = tested on: U251 CNS
[55] = tested on: UACC-257 melanoma
[56] = tested on: UACC-62 melanoma
[57] = tested on: UO-31 renal

`COc1cccc2c1C(=O)c1c(O)c3c(c(O)c1C2=O)C[C@@](O)(C(C)=O)C[C@@H]3O[C@H]1C[C@H](N)[C@H](O)[C@H](C)O1` was tested, and the GI50 [1] was 68.5 nM, the TGI [1] was 517 nM and the TGI [2] was 896 nM. It also gave a GI50 [3] of 42.7 nM, a TGI [3] of 201 nM and a GI50 [4] of 45.2 nM. For the same compound, the TGI [4] was 395 nM, the GI50 [5] was 153 nM and the TGI [5] was 924 nM. For the same compound, the GI50 [6] was 229 nM, the TGI [6] was 1530 nM and the GI50 [7] was 22.8 nM. For the same compound, the TGI [7] was 293 nM, the GI50 [8] was 52.4 nM and the TGI [8] was 655 nM. It also gave a GI50 [9] of 68.7 nM, a TGI [9] of 340 nM and a GI50 [10] of 360 nM. It also gave a TGI [10] of 2630 nM, a GI50 [11] of 99.2 nM and a TGI [11] of 475 nM. The GI50 [12] was 28.6 nM, the TGI [12] was 216 nM and the TGI [13] was 5690 nM. For the same compound, the GI50 [14] was 31.2 nM, the TGI [14] was 358 nM and the GI50 [15] was 53 nM. The TGI [15] was 263 nM, the GI50 [16] was 29.6 nM and the TGI [16] was 276 nM. For the same compound, the GI50 [17] was 120 nM, the TGI [17] was 1820 nM and the GI50 [18] was 50.7 nM. It also gave a TGI [18] of 337 nM, a GI50 [19] of 60.9 nM and a TGI [19] of 2580 nM. The GI50 [20] was 51.3 nM, the TGI [20] was 868 nM and the GI50 [21] was 96 nM. The TGI [21] was 497 nM, the TGI [22] was 107 nM and the GI50 [23] was 118 nM. For the same compound, the TGI [23] was 653 nM, the TGI [24] was 235 nM and the GI50 [25] was 19.5 nM. It also gave a TGI [25] of 2040 nM, a GI50 [26] of 201 nM and a TGI [26] of 2750 nM. The GI50 [27] was 137 nM, the TGI [27] was 672 nM and the GI50 [28] was 16.5 nM. The TGI [28] was 117 nM, the GI50 [29] was 53.2 nM and the TGI [29] was 119 nM. The GI50 [30] was 59.4 nM, the TGI [30] was 262 nM and the GI50 [31] was 36.2 nM. The TGI [31] was 163 nM, the GI50 [32] was 1230 nM and the TGI [32] was 9040 nM. For the same compound, the GI50 [33] was 125 nM, the TGI [33] was 777 nM and the GI50 [34] was 128 nM. For the same compound, the TGI [34] was 1060 nM, the GI50 [35] was 155 nM and the TGI [35] was 2260 nM. The GI50 [36] was 41.6 nM, the TGI [36] was 1090 nM and the GI50 [37] was 108 nM. The TGI [37] was 975 nM, the GI50 [38] was 90.2 nM and the TGI [38] was 327 nM. It also gave a GI50 [39] of 92.4 nM, a TGI [39] of 341 nM and a GI50 [40] of 54.8 nM. For the same compound, the TGI [40] was 585 nM, the GI50 [41] was 42.8 nM and the TGI [41] was 245 nM. The TGI [42] was 546 nM, the GI50 [43] was 158 nM and the TGI [43] was 506 nM. It also gave a GI50 [44] of 132 nM, a TGI [44] of 680 nM and a GI50 [45] of 48.8 nM. It also gave a TGI [45] of 143 nM, a GI50 [46] of 88.7 nM and a TGI [46] of 1320 nM. The GI50 [47] was 41.6 nM, the TGI [47] was 451 nM and the GI50 [48] was 36.1 nM. For the same compound, the TGI [48] was 1350 nM, the GI50 [49] was 39.1 nM and the TGI [49] was 359 nM. For the same compound, the GI50 [50] was 7.24 nM, the TGI [50] was 188 nM and the GI50 [51] was 35.5 nM. It also gave a TGI [51] of 855 nM, a GI50 [52] of 40.8 nM and a TGI [52] of 312 nM. The GI50 [53] was 93.6 nM, the TGI [53] was 793 nM and the GI50 [54] was 38.1 nM. For the same compound, the TGI [54] was 217 nM, the TGI [55] was 426 nM and the GI50 [56] was 59.8 nM. It also gave a TGI [56] of 205 nM, a GI50 [57] of 175 nM and a TGI [57] of 1260 nM.

— PubChem BioAssay (NCI)
